Measurements reported in publication PMC9133015 (Nature Communications, 2022).
Several values for one entry are separate records, joined by “and”; a condition that tells them apart may be missing. Identical values can stand only once. Entries after “also recorded” stand apart in the source; their conditions may differ.

Columns and labels:
[1] = test system: 22Rv1 shDYRK2 cells; test: Anti-proliferation activity assay (CCK8, 72 h); format: cell-based, human; details: Homo sapiens
[2] = test system: DU145 shDYRK2 cells; test: Anti-proliferation activity assay (CCK8, 72 h); format: cell-based, human
[3] = test system: p-4E-BP1 (Thr37/46); test: Western blotting analysis of indicated proteins in PCa cells; format: cell-based, human; details: 48 h treatment
[4] = test system: ICR mice; test: Acute toxicity study; format: in vivo
[5] = Homo sapiens, DU-145, read-out: inhibitory rate (%) mean
[6] = ICR mice, single oral dose 2500, 5000, 10,000 mg/kg, 14 days

CCN1CCN(C(=O)c2ccc(Nc3ncc(F)c(-c4ccc5nc(N(C)C)sc5c4)n3)nc2)CC1 [YK-2-69]
inhibition at 5 µM ([1]; 22Rv1 KD, inhibitor 5 uM, read-out: inhibitory rate (%) mean): 19.2% | inhibition at 40 µM ([1]; 22Rv1 KD, inhibitor 40 uM, read-out: inhibitory rate (%) mean): 31.8% | inhibition at 80 µM ([1]; 22Rv1 KD, inhibitor 80 uM, read-out: inhibitory rate (%) mean): 43.8% | IC50 ([1]; 22Rv1 shDYRK2 cells, read-out: IC50 antiproliferative activity): > 80 µM | inhibitory activity on proliferation (in words) ([2]; DU145 shDYRK2 cells, even at 80 μM): almost no inhibitory activity | inhibition at 0.625 µM ([2]; Homo sapiens, DU-145, DU145 KD, inhibitor 0.625 uM, read-out: inhibitory rate (%) mean): 7.98% | inhibition at 1.25 µM ([2]; Homo sapiens, DU-145, DU145 KD, inhibitor 1.25 uM, read-out: inhibitory rate (%) mean): 10.3% | inhibition at 5 µM ([2]; Homo sapiens, DU-145, DU145 KD, inhibitor 5 uM, read-out: inhibitory rate (%) mean): 13.5% | inhibition at 10 µM ([2]; Homo sapiens, DU-145, DU145 KD, inhibitor 10 uM, read-out: inhibitory rate (%) mean): 15.4% | inhibition at 40 µM ([2]; Homo sapiens, DU-145, DU145 KD, inhibitor 40 uM, read-out: inhibitory rate (%) mean): 17.2% | inhibition at 80 µM ([2]; Homo sapiens, DU-145, DU145 KD, inhibitor 80 uM, read-out: inhibitory rate (%) mean): 18.1% | IC50 ([2]; Homo sapiens, DU-145, DU145 shDYRK2 cells, read-out: IC50 antiproliferative activity): > 80 µM | inhibition at 2.5 µM [2, 5]: 11.8% | inhibition at 20 µM [2, 5]: 16% | phosphorylation of 4E-BP1 [3]: inhibited the phosphorylation of 4E-BP1 in a dose-dependent manner | Figure S9b Heart (organ weight, individual mice) ([4]; 2500 mg/kg): 0.094 and 0.137 and 0.125 and 0.146 and 0.118 and 0.152 and 0.105 and 0.097 and 0.092 and 0.115 | Figure S9b Kidney (organ weight, individual mice) ([4]; 2500 mg/kg): 0.384 and 0.403 and 0.421 and 0.413 and 0.636 and 0.576 and 0.731 and 0.682 and 0.613 | Figure S9b Liver (organ weight, individual mice) ([4]; 2500 mg/kg): 1.351 and 1.216 and 1.284 and 1.094 and 1.159 and 1.384 and 1.751 and 1.369 and 1.52 and 1.491 | Figure S9b Lung (organ weight, individual mice) ([4]; 2500 mg/kg): 0.316 and 0.435 and 0.421 and 0.358 and 0.299 and 0.367 and 0.294 and 0.341 and 0.276 and 0.336 | Figure S9b Spleen (organ weight, individual mice) ([4]; 2500 mg/kg): 0.176 and 0.186 and 0.205 and 0.201 and 0.214 and 0.253 and 0.196 and 0.221 and 0.206 and 0.257 | Figure S9a body weight of individual mice ([4]; 2500 mg/kg, Day 0): 19.9 and 20.5 and 20.1 (2×) and 20 and 19.6 and 19.8 and 20.3 and 20.6 and 21.1 | Figure S9a body weight of individual mice ([4]; 2500 mg/kg, Day 2): 20.2 (2×) and 20.8 and 20.3 (2×) and 20.4 and 19.8 and 20.6 and 20.9 and 21.5 | Figure S9a body weight of individual mice ([4]; 2500 mg/kg, Day 4): 20.8 and 21.3 (2×) and 20.5 and 20.6 (2×) and 20.1 and 20.4 and 21.1 and 21.8 | Figure S9a body weight of individual mice ([4]; 2500 mg/kg, Day 6): 21.3 and 21.7 and 20.6 and 20.8 and 20.2 and 20.7 and 21.5 and 21.9 and 22.2 and 20.9 | Figure S9a body weight of individual mice ([4]; 2500 mg/kg, Day 8): 22.3 and 22.5 and 20.7 and 21.1 and 20.3 and 21 and 21.8 and 22.2 and 22.6 and 21.5 | Figure S9a body weight of individual mice ([4]; 2500 mg/kg, Day 10): 22.9 and 23.2 and 20.9 and 21.4 and 20.5 and 21.3 and 22.2 and 22.5 and 23.4 and 21.9 | Figure S9a body weight of individual mice ([4]; 2500 mg/kg, Day 12): 23.5 and 23.9 and 21.2 and 21.7 and 20.6 and 21.6 and 22.4 (2×) and 22.9 and 23.8 | Figure S9a body weight of individual mice ([4]; 2500 mg/kg, Day 14): 24.2 and 24.5 and 21.4 and 22 and 20.9 and 21.8 and 22.9 (2×) and 23.4 and 24.3 | Figure S9b Heart (organ weight, individual mice) ([4]; 5000 mg/kg): 0.126 and 0.135 and 0.116 and 0.143 and 0.138 and 0.106 and 0.112 and 0.096 and 0.094 | Figure S9b Kidney (organ weight, individual mice) ([4]; 5000 mg/kg): 0.369 and 0.416 and 0.389 and 0.444 and 0.502 and 0.384 and 0.569 and 0.612 and 0.656 and 0.715 | Figure S9b Liver (organ weight, individual mice) ([4]; 5000 mg/kg): 1.316 and 1.128 and 1.421 and 1.266 and 1.156 and 1.841 and 1.669 and 1.581 and 1.384 and 1.492 | Figure S9b Lung (organ weight, individual mice) ([4]; 5000 mg/kg): 0.401 and 0.386 and 0.456 and 0.512 and 0.379 and 0.452 and 0.253 and 0.302 and 0.281 and 0.317 | Figure S9b Spleen (organ weight, individual mice) ([4]; 5000 mg/kg): 0.2 and 0.186 and 0.199 and 0.214 and 0.231 and 0.25 and 0.241 and 0.267 | Figure S9a body weight of individual mice ([4]; 5000 mg/kg, Day 0): 21.4 and 20.5 (3×) and 19.7 and 20.2 and 19.6 and 19.9 and 20.3 and 21.1 | Figure S9a body weight of individual mice ([4]; 5000 mg/kg, Day 2): 21.7 and 20.9 and 19.9 and 20.4 and 19.6 and 20.3 and 20.7 and 20.6 and 21.5 and 20.8 | Figure S9b Heart (organ weight, individual mice) ([4]; 10000 mg/kg): 0.115 and 0.099 and 0.142 and 0.128 and 0.122 and 0.129 and 0.089 and 0.096 and 0.124 and 0.106 | Figure S9b Kidney (organ weight, individual mice) ([4]; 10000 mg/kg): 0.412 and 0.389 and 0.476 and 0.423 and 0.403 and 0.621 and 0.586 and 0.639 and 0.7 and 0.641 | Figure S9b Liver (organ weight, individual mice) ([4]; 10000 mg/kg): 1.352 and 1.294 and 1.186 and 1.416 and 1.222 and 1.613 and 1.358 and 1.429 and 1.61 and 1.389 | Figure S9b Lung (organ weight, individual mice) ([4]; 10000 mg/kg): 0.418 and 0.361 and 0.395 and 0.475 and 0.486 and 0.369 and 0.384 and 0.416 and 0.336 and 0.333 | Figure S9b Spleen (organ weight, individual mice) ([4]; 10000 mg/kg): 0.181 and 0.194 and 0.176 and 0.189 and 0.201 and 0.235 and 0.214 and 0.226 and 0.257 | maximal tolerable dose ([4]; ICR mice, single oral dose): more than 10,000 mg/kg | abnormality and death [4, 6]: no mice died; also recorded: No abnormality and death were observed | body weight and main organs vs control (in words) [4, 6]: no difference was detected
